Reference: US5147652A, “Autobiotics and their use in eliminating nonself cells in vivo” (priority 1990, dated 1992)

Tests used:
Sarcoma-180 cells = assay: Radiation enhancement in mice carrying ascitic Sarcoma-180 cells; type: in vivo
From the text: Ten minutes after the injection the mice were irradiated with a gamma source (612 RAD equivalent of 400 R total body radiation; calculated lethaldose:LD-50/30 days). The treatment was repeated 3 times 4 days apart. […] One day after the last radiation, the animals were sacrificed, the ascitic fluid was collected and the malignant cells were counted.

C. albicans = assay: Inhibition of C. albicans, yeast mixed in agar (B); type: cell-based; conditions: 30 μl test, 24 hrs incubation; mean of twenty assays
Experimental: Stock cultured C. albicans is used. The yeast isolated from clinical specimens was stock cultured (subcultured) on semisolid trypsoy agar plates. […] Thus, from the subculture(s), transfers were made every 48 hrs into SRB to keep the experimental strain available for assays. From the 24-48 hrs SRB cultures a loopful of turbid solutions was transferred and spread on either (a) trypsoy agar plates or (b) EBM agar plates which were fortified with horse and calf serum and incubated at 36 C for 24-48 hrs. […] Plate (a) was selected for growth inhibition assay(s) with ketoaldehydes.
One milliliter of SRB culture (24-48 hrs growth) was mixed with 10 ml trypsoy agar, warmed to 38 C and rapidly poured into sterile Petri dishes (7cm), spread evenly and allowed to solidify. The selected test compounds (in 30 μl total volume, as above) were placed in sensidisks (6mm dia, Whatman #17) on the infected agar surface. The plates were incubated for 24 hrs at 37 C. The extent of inhibition, clear zones around the sensi disks, were measured and recorded. In some cases contact photorecords were also made with the plates. (The dark zones on the photos are the inhibition (no growth) areas of C. albicans.
These assays were aimed at finding the variations of inhibition due to (i) the variable amount of yeast in (ii) a three dimensional area of the plates. Each result is the statistical mean of twenty assays on different batches of C. albicans.

[1] = system: blood coagulation (plasma from a patient with prothrombin); assay: Blood coagulation (ii)(a), plasma from a patient with prothrombin; type: biochemical, human
Experimental: (§1) 200 microliter thromboplastin (Ortho) was mixed with 10 microliter ketoaldehyde (KA) stock solution. Then 100 microliter citrated human blood plasma was added and the clot formation time (in seconds) was measured on a Fibrionometer. The effect of the ketoaldehyde on coagulation time was evaluated by comparing the clotting time of the KA treated plasma with the untreated control. The result (d%) was read from a special chart expressing the clotting activity.
(§2) All measurements were run in triplicates. The assay was run at 37 C (waterbath) in special tubes and all solutions were prewarmed.
(§3) (ii) The plasminogen and KA were incubated for
(§4) varying time before the blood plasma was added.
(a) With plasma from a patient with prothrombin
(clotting time 26 sec d % = 19. "Normal" (healthy)

[2] = system: blood coagulation (citrated human blood plasma); assay: Blood coagulation (i), ketoaldehyde kept 1-2 seconds before plasma added; type: biochemical; conditions: 1-2 seconds contact; for d % (clotting activity): control 22; for coagulation time: control 24; for clot: control hard
Experimental: as §1, §2
(i) The plasminogen and ketoaldehyde were kept for
1-2 seconds before the blood plasma was added.

[3] = in vivo half life of C14-radiolabelled free and latentiated methylglyoxal; conditions: free; injected into mice
Experimental: With free alpha-ketoaldehydes, the half-life is about 30 minutes. […] Latentiation also protects host cells from the toxic effects of alpha-ketoaldehydes.

Penicillum notatum = assay: Inhibition of proliferation of molds, disk assay; type: cell-based; conditions: 40 hrs
Experimental: (§5) (1) Stock solutions in 26% 2 popanediol:
(§6) (3) Assay: The microorganisms were grown in Saburand's dextrose agar (Scott) at 35 C for stock cultures. For assay the spores were plated on Mueller-Hilton agar plates (7cm dia). The test compounds were applied to the plates on sensi disks (6 mm dia, Whatmann #17 paper) in volumes of 10, 20, 30, 40 microliter made up to 40 plating volume of microliter with the solvent. The plates were incubated at room temperature and in the dark for 40 hrs. The diameter of the inhibition ring around the sensi disks were measured.

Aspergillus niger = assay: Inhibition of proliferation of molds, disk assay; type: cell-based; conditions: 40 hrs
Experimental: as §5, §6

[4] = system: blood coagulation (normal plasma); assay: Blood coagulation (ii)(b), normal plasma; type: biochemical, human
Experimental: as §1, §2, §3, §4
(b) with normal plasma: clotting time = 11. 7 sec

Candida albicans = assay: Effect on proliferation of Candida albicans, disk on agar surface (A); type: cell-based; conditions: 24 hours (*)
Experimental: Stock solutions of the following test compounds were dissolved in physiological saline. However DOV was dissolved in water.
C. albicans isolated from clinical specimens were density grown in SubbaRow's broth at 35 C. A loopful of yeast suspension was evenly spread on the surface of Muller-Hilton agar plates (7cm diameter) with a sterile cotton applicator and incubated for 12 hours. The test compounds were placed on the surface of the sensidisks (Whatmann No. 17 paper, 6mm diameter) in a volume of 5, 10, 20, and 50 μliter of stock solutions and made up a final volume of 50 μliter with saline. The plates then were placed and kept at 37 C for 24 hours (*) and 48 hours (**) when the diameters of the inhibitory rings were recorded. Photographs were also taken of plates.

[5] = system: blood coagulation (whole blood); assay: Blood coagulation (c), trial assay with whole blood; type: biochemical; conditions: control 14.9 sec
Experimental: as §1, §2
(c) A trial assay where blood plasma was replaced

cell division = conditions: Stein and co-workers; cited from earlier work
[6] = type: physicochemical

CC(=O)C=O [MG, methylglyoxal]
P % (promotion) (Sarcoma-180 cells; MG alone, without radiation): 4.7% | TC % (Sarcoma-180 cells; MG alone, without radiation): 104.7% | TC % (Sarcoma-180 cells; RAD + MG, 120 mg/kg, 612 RAD, 3 times): 7.7% | inhibition diameters (C. albicans): 6.0 mm | clotting time ([1]; incubation time 30 seconds): 39 s | d% ([1]; incubation time 30 seconds): 15% | clotting time ([1]; incubation time 60 seconds): 32 s | d% ([1]; incubation time 60 seconds): 13% | clotting time ([1]; incubation time 130 seconds): 39 s | d% ([1]; incubation time 130 seconds): < 10% | clotting time ([1]; incubation time 190 seconds): 41 s | clotting time ([1]; incubation time 300 seconds): 91.8 s | d % (clotting activity) [2]: 20% | coagulation time [2]: 25 s | clot [2]: hard | half life [3]: about 30 minutes | diameter of inhibition ring (Penicillum notatum; 30 microliter): 8 | diameter of inhibition ring (Penicillum notatum; 40 microliter): 10 | diameter of inhibition ring (Aspergillus niger; 30 microliter): 7 | diameter of inhibition ring (Aspergillus niger; 40 microliter): 9 | clotting time ([4]; incubation time 5 seconds): 12.9 s | d% ([4]; incubation time 5 seconds): 96% | clotting time ([4]; incubation time 60 seconds): 14.9 s | d% ([4]; incubation time 60 seconds): 55% | clotting time ([4]; incubation time 129 seconds): 15.4 s | d% ([4]; incubation time 129 seconds): 53% | clotting time ([4]; incubation time 240 seconds): 19.0 s | d% ([4]; incubation time 240 seconds): 35% | clotting time ([4]; incubation time 360 seconds): 26.9 s | d% ([4]; incubation time 360 seconds): 26% | clotting time ([4]; incubation time 600 seconds): > 167.0 s | inhibition diameters (Candida albicans; 20 μliter): 8 mm | inhibition diameters (Candida albicans; 50 μliter): 10 mm | clotting time ([5]; incubation time 70): 16.5 s | clotting time ([5]; incubation time 150): 19.4 s | clotting time ([5]; incubation time 180): 20.0 s | clotting time ([5]; incubation time 240): 22.0 s | clotting time ([5]; incubation time 360): 24.0 s

O=CC(=O)c1ccccc1 [PhG, phenylglyoxal]
effect of reaction with arginine-rich surface proteins on cells (cell division): cells that can not divide, and which become leaky and die | solubility in organic solvents ([6]; chloroform, methanol, ethanol): soluble in chloroform methanol and ethanol | solubility limit of stock solution ([6]; physiological saline stock): limit solubility | solubility in water ([6]; water): sparingly soluble in water | d % (clotting activity) [2]: 11% | coagulation time [2]: 35 s | clot [2]: hard | clotting time ([4]; incubation time 120 seconds): 19.5 s | d% ([4]; incubation time 120 seconds): 33% | inhibition diameters (Candida albicans; 20 μliter): 5 mm | inhibition diameters (Candida albicans; 50 μliter): 8 mm
